Test results published in patent US20130029970A1 (priority 2009, published 2013).

Legend:
[1] = molecular target: T1, human CB2 receptors (Homo sapiens, UniProt P34972); test: cAMP assay in HEK-293 cells, hCB2 agonist; assay type: cell-based; conditions: inhibition of forskolin-stimulated cAMP, HEK-293 cells; read-out: hCB2 EC50 (cAMP ag)
T1 construct: (cDNA clone) CNR0200000
Summary of the method: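 Stable hCB2 HEK-293 cells in HBSS/10 mM HEPES/0.1% fatty-acid-free BSA incubated 30 min at 37° C with compound; forskolin 90 uM in 3× compound mix.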

[2] = molecular target: T2, recombinant human cannabinoid receptor CB2 (Homo sapiens, UniProt P34972); test: Cannabinoid receptor radioligand binding assay, [3H]-CP 55,940 displacement, hCB2
T2 construct: (cDNA clone) CNR0200000
Summary of the method: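 Receptor source: membrane pellet (40,000×g) from transfected cells, stored in HEPES pH 7.4/MgCl2/EDTA/sucrose buffer.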

[3] = molecular target: T3, human CB1 receptors (Homo sapiens, UniProt P21554); test: cAMP assay in HEK-293 cells, hCB1 agonist; assay type: cell-based; conditions: inhibition of forskolin-stimulated cAMP, HEK-293 cells; for EC50: read-out: hCB1 EC50 (cAMP ag)
T3 construct: (cDNA clone) CNR01L000
Summary of the method: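 Agonist EC50 taken as concentration giving half inhibition of forskolin-driven cAMP, normalized to forskolin maximum, from sigmoidal curves. Whole HEK-293 cells stably expressing hCB1, in HEPES/BSA-containing HBSS, exposed 30 min at 37° C. to compound with forskolin (90 uM in 3× dilution); cAMP read after lysis.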

T2 sequence (P34972 whole entry): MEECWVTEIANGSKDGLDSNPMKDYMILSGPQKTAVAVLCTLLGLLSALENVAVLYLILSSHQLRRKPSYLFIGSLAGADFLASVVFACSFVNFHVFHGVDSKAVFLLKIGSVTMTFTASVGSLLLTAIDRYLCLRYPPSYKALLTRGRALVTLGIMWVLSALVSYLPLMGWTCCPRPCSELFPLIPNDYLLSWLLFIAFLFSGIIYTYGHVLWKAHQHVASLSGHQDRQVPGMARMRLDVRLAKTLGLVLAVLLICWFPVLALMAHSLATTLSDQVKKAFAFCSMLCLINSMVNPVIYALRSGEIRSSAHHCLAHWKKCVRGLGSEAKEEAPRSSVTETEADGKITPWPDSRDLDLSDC
T1 sequence (P34972 whole entry): as above
T3 sequence (P21554 whole entry): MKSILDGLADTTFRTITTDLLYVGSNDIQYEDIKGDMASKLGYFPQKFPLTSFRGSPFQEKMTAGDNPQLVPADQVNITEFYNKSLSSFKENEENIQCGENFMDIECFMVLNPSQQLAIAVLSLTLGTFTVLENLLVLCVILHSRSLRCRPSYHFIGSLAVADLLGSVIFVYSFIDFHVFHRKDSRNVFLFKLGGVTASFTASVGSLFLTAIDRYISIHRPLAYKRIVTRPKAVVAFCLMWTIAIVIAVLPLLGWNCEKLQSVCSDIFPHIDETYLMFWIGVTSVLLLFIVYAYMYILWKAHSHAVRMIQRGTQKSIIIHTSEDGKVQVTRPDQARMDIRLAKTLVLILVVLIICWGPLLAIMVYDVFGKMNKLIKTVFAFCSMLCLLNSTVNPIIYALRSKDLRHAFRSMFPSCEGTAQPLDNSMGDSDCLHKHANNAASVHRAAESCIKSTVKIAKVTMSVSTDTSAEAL

SMILES | EC50 [1] [nM] | IC50 [2] [nM] | hCB1 EC50 (cAMP ag, nM) [3] | EC50 [3] [nM]
Cc1cc2cc(C(=O)c3ccc(F)cc3)sc2n1CCN1CCOCC1 [Compound 54, (4-Fluorophenyl)(5-methyl-6-(2-morpholinoethyl)-6H-thieno[2,3-b]pyrrol-2-yl)methanone] | < 100 | 100 to 1000 | NS (NS means “Not Significant,” which means less than 30% agonist activity when compared to the positive control.) | –
CCS(=O)(=O)n1c(C)cc2cc(C(=O)c3ccc(OC)cc3)sc21 [Compound 56, (6-(Ethylsulfonyl)-5-methyl-6H-thieno[2,3-b]pyrrol-2-yl)(4-methoxyphenyl)methanone] | < 100 | 100 to 1000 | NS (NS means “Not Significant,” which means less than 30% agonist activity when compared to the positive control.) | –
COc1ccc(C(=O)c2cc3cc(C)n(S(=O)(=O)CC4CCOCC4)c3s2)cc1 [Compound 57, (4-Methoxyphenyl)(5-methyl-6-((tetrahydro-2H-pyran-4-yl)methylsulfonyl)-6H-thieno[2,3-b]pyrrol-2-yl)methanone] | < 100 | < 100 | – | < 100
COc1ccc(C(=O)c2cc3cc(C)n(CCN4CCOCC4)c3s2)cn1 [Compound 58, (6-Methoxypyridin-3-yl)(5-methyl-6-(2-morpholinoethyl)-6H-thieno[2,3-b]pyrrol-2-yl)methanone] | < 100 | 100 to 1000 | NS (NS means “Not Significant,” which means less than 30% agonist activity when compared to the positive control.) | –
Cc1cc2cc(C(=O)c3ccc(C(F)(F)F)cc3)sc2n1CCN1CCOCC1 [Compound 60, (5-Methyl-6-(2-morpholinoethyl)-6H-thieno[2,3-b]pyrrol-2-yl)(4-(trifluoromethyl)phenyl)methanone] | < 100 | 1000 to 10000 | NS (NS means “Not Significant,” which means less than 30% agonist activity when compared to the positive control.) | –
COc1ccc(C(=O)c2cc3cc(C)n(CC4CCOCC4)c3s2)cc1 [Compound 62, (4-Methoxyphenyl)(5-methyl-6-((tetrahydro-2H-pyran-4-yl)methyl)-6H-thieno[2,3-b]pyrrol-2-yl)methanone] | < 100 | < 100 | – | 100 to 1000
COc1ccc(C(=O)c2cc3cc(C)n(CCN4CCOCC4)c3s2)c(Cl)c1 [Compound 70, (2-Chloro-4-methoxyphenyl)(5-methyl-6-(2-morpholinoethyl)-6H-thieno[2,3-b]pyrrol-2-yl)methanone] | < 100 | < 100 | – | 100 to 1000
COc1ccc(C(=O)c2cc3cc(C)n(CCN4CCCCC4)c3s2)cc1 [Compound 78, (4-Methoxyphenyl)(5-methyl-6-(2-(piperidin-1-yl)ethyl)-6H-thieno[2,3-b]pyrrol-2-yl)methanone] | < 100 | < 100 | – | 1000 to 10000
COc1ccc(C(=O)c2cc3cc(C)n(CCC4CCOCC4)c3s2)cc1 [Compound 82, (4-Methoxyphenyl)(5-methyl-6-(2-(tetrahydro-2H-pyran-4-yl)ethyl)-6H-thieno[2,3-b]pyrrol-2-yl)methanone] | < 100 | < 100 | – | 100 to 1000
COc1ccc(C(=O)c2cc3cc(C)n(Cc4ccccc4)c3s2)cc1 [Compound 84, (6-Benzyl-5-methyl-6H-thieno[2,3-b]pyrrol-2-yl)(4-methoxyphenyl)methanone] | < 100 | 100 to 1000 | NS (NS means “Not Significant,” which means less than 30% agonist activity when compared to the positive control.) | –
COc1ccc(C(=O)c2cc3cc(C)n(CCCCl)c3s2)c(Cl)c1 [Compound 85, (2-Chloro-4-methoxyphenyl)(6-(3-chloropropyl)-5-methyl-6H-thieno[2,3-b]pyrrol-2-yl)methanone] | < 100 | < 100 | – | 1000 to 10000
COc1ccc(C(=O)c2cc3cc(C)n(CCCNS(C)(=O)=O)c3s2)c(F)c1 [Compound 87, N-(3-(2-(2-Fluoro-4-methoxybenzoyl)-5-methyl-6H-thieno[2,3-b]pyrrol-6-yl)propyl)methanesulfonamide] | < 100 | 100 to 1000 | NS (NS means “Not Significant,” which means less than 30% agonist activity when compared to the positive control.) | –
COc1ccc(C(=O)c2cc3cc(C)n(CCCNS(C)(=O)=O)c3s2)c(Cl)c1 [Compound 91, N-(3-(2-(2-Chloro-4-methoxybenzoyl)-5-methyl-6H-thieno[2,3-b]pyrrol-6-yl)propyl)methanesulfonamide] | < 100 | < 100 | NS (NS means “Not Significant,” which means less than 30% agonist activity when compared to the positive control.) | –
COc1ccc(C(=O)c2cc3cc(C)n(CCN4CCOCC4)c3s2)c(C(F)(F)F)c1 [Compound 119, (4-Methoxy-2-(trifluoromethyl)phenyl)(5-methyl-6-(2-morpholinoethyl)-6H-thieno[2,3-b]pyrrol-2-yl)methanone] | < 100 | < 100 | – | 100 to 1000
COc1ccc(C(=O)c2cc3cc(C)n(CCN4CCOCC4)c3s2)c(OC)c1 [Compound 120, (2,4-Dimethoxyphenyl)(5-methyl-6-(2-morpholinoethyl)-6H-thieno[2,3-b]pyrrol-2-yl)methanone] | < 100 | < 100 | – | 100 to 1000
Cc1ccc(C(=N)c2cc3cc(C)n(CCN4CCOCC4)c3s2)cc1 [Compound 121, (5-methyl-6-(2-morpholinoethyl)-6H-thieno[2,3-b]pyrrol-2-yl)(p-tolyl)methanimine] | < 100 | 100 to 1000 | NS (NS means “Not Significant,” which means less than 30% agonist activity when compared to the positive control.) | –
CCOc1ccc(C(=O)c2cc3cc(C)n(CCN4CCOCC4)c3s2)c(Cl)c1 [Compound 126, (2-chloro-4-ethoxyphenyl)(5-methyl-6-(2-morpholinoethyl)-6H-thieno[2,3-b]pyrrol-2-yl)methanone] | < 100 | < 100 | – | 1000 to 10000
COc1ccc(C(=O)c2cc3cc(C)n(CCN4CCOCC4)c3s2)cc1F [Compound 128, (3-fluoro-4-methoxyphenyl)(5-methyl-6-(2-morpholinoethyl)-6H-thieno[2,3-b]pyrrol-2-yl)methanone] | 100 to 1000 | 100 to 1000 | NS (NS means “Not Significant,” which means less than 30% agonist activity when compared to the positive control.) | –
Cc1cc2cc(C(=O)c3ccc(C#N)cc3)sc2n1CCN1CCOCC1 [Compound 129, 4-(5-methyl-6-(2-morpholinoethyl)-6H-thieno[2,3-b]pyrrole-2-carbonyl)benzonitrile] | 100 to 1000 | 100 to 1000 | NS (NS means “Not Significant,” which means less than 30% agonist activity when compared to the positive control.) | –
COc1cc(F)ccc1C(=O)c1cc2cc(C)n(CCN3CCOCC3)c2s1 [Compound 133, (4-fluoro-2-methoxyphenyl)(5-methyl-6-(2-morpholinoethyl)-6H-thieno[2,3-b]pyrrol-2-yl)methanone] | < 100 | < 100 | – | 100 to 1000
Cc1cc2cc(C(=O)c3ccc(F)cc3F)sc2n1CCN1CCOCC1 [Compound 135, (2,4-difluorophenyl)(5-methyl-6-(2-morpholinoethyl)-6H-thieno[2,3-b]pyrrol-2-yl)methanone] | < 100 | 100 to 1000 | NS (NS means “Not Significant,” which means less than 30% agonist activity when compared to the positive control.) | –
COc1ccc(C(=O)c2cc3cc(C)n(CCN4CCOCC4)c3s2)c(C)n1 [Compound 136, (6-methoxy-2-methylpyridin-3-yl)(5-methyl-6-(2-morpholinoethyl)-6H-thieno[2,3-b]pyrrol-2-yl)methanone] | < 100 | < 100 | NS (NS means “Not Significant,” which means less than 30% agonist activity when compared to the positive control.) | –
COc1ccc(C(O)(c2cc3cc(C)n(CCN4CCOCC4)c3s2)C(F)(F)F)cc1 (stereo not drawn) [Compound 138, 2,2,2-trifluoro-1-(4-methoxyphenyl)-1-(5-methyl-6-(2-morpholinoethyl)-6H-thieno[2,3-b]pyrrol-2-yl)ethanol] | < 100 | 100 to 1000 | NS (NS means “Not Significant,” which means less than 30% agonist activity when compared to the positive control.) | –
COc1ccc(C(=O)c2cc3cc(C)n(S(=O)(=O)CCN4CCOCC4)c3s2)cc1 [Compound 139, (4-methoxyphenyl)(5-methyl-6-(2-morpholinoethylsulfonyl)-6H-thieno[2,3-b]pyrrol-2-yl)methanone] | < 100 | < 100 | – | 100 to 1000
COc1ccc(C(c2cc3cc(C)n(CCN4CCOCC4)c3s2)C(F)(F)F)cc1 (stereo not drawn) [Compound 141, 4-(2-(5-methyl-2-(2,2,2-trifluoro-1-(4-methoxyphenyl)ethyl)-6H-thieno[2,3-b]pyrrol-6-yl)ethyl)morpholine] | < 100 | 100 to 1000 | NS (NS means “Not Significant,” which means less than 30% agonist activity when compared to the positive control.) | –
